Experimental findings from patent publication US20070254894A1, “Novel small molecules with selective cytotoxicity against human microvascular endothelial cell proliferation” (priority 2006, published 2007) are described below.

Structures can show the parent of a compound that is named as a salt. A value given as a limit tells only on which side of the number the result lay.

One data set relates to retinal neovascularization. Kind of data set: Mouse model of oxygen induced retinopathy (OIR), intravitreal administration. To be noted: intravitreal once on day 12, 30 mg/ml, eyes examined day 17, versus controls. The class given is in vivo, C57BL/6 mouse. The protocol: Seven day old neonatal C57BL/6 mouse pups and their nursing dam were placed in an isobaric chamber that maintains a 75% oxygen level. The pups were returned to a normoxic environment at 12 days of age. The test articles and vehicle controls were administered intravitreally (once on day 12). Approximately one half of the pups from each litter were injected, the remaining pups were used as controls. Pups were euthanized on day 17 and their left/treated eye is processed for histological sectioning. […] The degree of neovascularization was measured by examining serial sections of the eye taken at 100 micron intervals. The numbers of endothelial nuclei that were internal but contiguous to the inner limiting membrane were counted. The number of nuclei from test article treated animals was compared with those counted in control animals. [table]
Consider `O=C(Nc1ccc(N2CCOCC2)c2cccnc12)c1ccccn1` [Compound 9], for which the amount of neovascularization result was “a decrease in the amount of neovascularization”.

In the case of `CN1CCN(c2ccc(NC(=O)c3ccccn3)c3ncccc23)CC1` [Compound 98], the amount of neovascularization result is “a decrease in the amount of neovascularization”.

Still in this data set, the particulars now being: intravitreal, 30 mg/ml; FIG. 1 and FIG. 2.
On to `O=C(Nc1ccc(N2CCOCC2)c2cccnc12)c1ccccn1` [Compound 9], for which the “effect on neovascularization, Compound 9 compared with Compound 98” value is “A greater effect”.

The same data set, now with this note: intravitreal, for the duration of the study.
As to `O=C(Nc1ccc(N2CCOCC2)c2cccnc12)c1ccccn1` [Compound 9], the “pupils of treated animals” value is “markedly dilated”.

With `CN1CCN(c2ccc(NC(=O)c3ccccn3)c3ncccc23)CC1` [Compound 98], the “pupils of treated animals” value is “markedly dilated”.

The subject of another data set is HMVEC cells stimulated with b-FGF. Briefly: b-FGF driven HMVEC proliferation screen. Type of data set: cell-based.
Conditions: not given
The protocol:
(§1) HMVEC cells were plated on collagen-coated plates at 2500 cells/well for 24 hours. Various concentrations of test compounds were then added to duplicate plates. […] Anti-FGF antibody (final concentration of 5 μg/mL) was added to four control wells as a standard inhibitor. At the same time the compounds were added, a T-zero plate was generated (Alamar blue was added to a plate and read after three hours). The plates with the compounds were incubated for one hour at 37° C., 5% carbon dioxide. At this point, b-FGF was added (final concentration of 2.5 ng/mL). Tween-20 (10 μL) was added to four additional control wells to represent total death and the plates were returned to the carbon dioxide incubator for 6 days.
For the molecule `O=C(Nc1ccc(N2CCOCC2)c2cccnc12)c1ccccn1` [Compound 9], the CC50 worked out at 37 nM.

Still in this data set, the particulars now being: Homo sapiens, HMVEC, 144 h, b-FGF 2.5 ng/mL, 6 days, Alamar blue; read-out: b-FGF LC50.
Consider `O=S(=O)(Nc1cc(Cl)c(Cl)c2cccnc12)c1ccccn1` [Compound 109], for which the CC50 turned out to be 340 nM.

With `CN(C)CC(=O)Nc1cccc2cccnc12` [Compound 55, 2-dimethylamino-N-quinolin-8-yl-acetamide], the CC50 came to 590 nM.

In the case of `Cc1cc(NC(=O)c2ccccn2)c2ncccc2c1C` [Compound 95], the CC50 stood at 170 nM.

With `O=C(Nc1cc(Cl)c(Cl)c2cccnc12)c1ccccn1` [Compound 97], the CC50 was 250 nM.

With `O=C(Nc1cccc2cccnc12)c1ncccc1OCc1ccccc1` [Compound 47, 3-benzyloxypyridine-2-carboxylic acid quinolin-8-ylamide], the CC50 came to 400 nM.

As to `O=C(Nc1cccc2cccnc12)c1cc(Cl)ccn1` [Compound 22, 4-chloropyridine-2-carboxylic acid quinolin-8-ylamide], the CC50 came to 130 nM.

With `CN1CCN(c2ccc(NC(=O)c3ccccn3)c3ncccc23)CC1` [Compound 98], the CC50 was 36 nM.

On to `Cc1cc(NS(=O)(=O)c2ccccn2)c2ncccc2c1C` [Compound 75, pyridine-2-sulfonic acid (5,6-dimethyl-quinolin-8-yl)-amide], for which the CC50 stood at 160 nM.

On to `COc1cc(NC(=O)c2cc(Cl)ccn2)c2ncccc2c1` [Compound 52], for which the CC50 is 85 nM.

`CN1CCC[C@H]1C(=O)Nc1ccc(N2CCOCC2)c2cccnc12` [Compound 68]: the CC50 worked out at 820 nM.

With `Cc1cccnc1C(=O)Nc1ccc(N2CCOCC2)c2cccnc12` [Compound 50], the CC50 amounted to 74 nM.

For the molecule `O=C(Nc1cccc2cccnc12)c1cc(N2CCC(N3CCCC3)CC2)ccn1` [Compound 103], the CC50 is 38 nM.

For `O=C(Nc1cccc2cccnc12)[C@@H]1CCCN1` [Compound 57, (S)-pyrrolidine-2-carboxylic acid quinolin-8-ylamide], the CC50 worked out at 1200 nM.

For the molecule `CCN(C)c1ccccc1NC(=O)c1ccccn1` [Compound 106], the CC50 was found to be 1200 nM.

Take `O=C(Nc1cccc2cccnc12)c1ccccn1` [Compound 93, pyridine-2-carboxylic acid quinolin-8-ylamide hydrochloride salt]: the CC50 was 71 nM.

Regarding `O=C(Nc1cccc2cccnc12)c1cc(Oc2ccccc2)ccn1` [Compound 32, 4-phenoxypyridine-2-carboxylic acid quinolin-8-ylamide], the CC50 stood at 1800 nM.

For `O=C(Nc1cccc2cccnc12)c1cc(Sc2ccccc2)ccn1` [Compound 31, 4-phenylsulfanylpyridine-2-carboxylic acid quinolin-8-ylamide], the CC50 worked out at 150 nM.

On to `O=C(Nc1cccc2cccnc12)[C@@H]1CCCN1CC1CC1` [Compound 61], for which the CC50 is 1500 nM.

Regarding `COc1cc(NC(=O)c2cc(N3CCOCC3)ccn2)c2ncccc2c1` [Compound 53], the CC50 turned out to be 28 nM.

The same data set, now with this note: b-FGF 2.5 ng/mL, 6 days, Alamar blue; read-out: b-FGF LC50.
Turning to `COc1cc(NC(=O)c2cc(N3CCN(C)CC3)ccn2)c2ncccc2c1` [Compound 105], the CC50 was 120 nM.

The subject of another data set is HMVEC cells stimulated with VEGF 165. Briefly: VEGF driven HMVEC proliferation screen. The class given is cell-based.
Conditions: not given
The protocol: as §1
The assay was run identically using VEGF in place of b-FGF. The final concentration of VEGF 165, in this mode, was 10 ng/mL. The control inhibitor was anti-VEGF antibody (final concentration of […]). All other conditions were the same.
On to `O=C(Nc1ccc(N2CCOCC2)c2cccnc12)c1ccccn1` [Compound 9], for which the CC50 was found to be 35 nM.

Still in this data set, the particulars now being: Homo sapiens, HMVEC, 144 h, VEGF 165 10 ng/mL, 6 days, Alamar blue; read-out: VEGF LC50.
Take `O=S(=O)(Nc1cc(Cl)c(Cl)c2cccnc12)c1ccccn1` [Compound 109]: the CC50 was found to be 450 nM.

Consider `CN(C)CC(=O)Nc1cccc2cccnc12` [Compound 55, 2-dimethylamino-N-quinolin-8-yl-acetamide], for which the CC50 stood at 630 nM.

As for `Cc1cc(NC(=O)c2ccccn2)c2ncccc2c1C` [Compound 95], the CC50 was determined as 150 nM.

As for `O=C(Nc1cc(Cl)c(Cl)c2cccnc12)c1ccccn1` [Compound 97], the CC50 worked out at 250 nM.

`O=C(Nc1cccc2cccnc12)c1ncccc1OCc1ccccc1` [Compound 47, 3-benzyloxypyridine-2-carboxylic acid quinolin-8-ylamide]: the CC50 was found to be 280 nM.

With `O=C(Nc1cccc2cccnc12)c1cc(Cl)ccn1` [Compound 22, 4-chloropyridine-2-carboxylic acid quinolin-8-ylamide], the CC50 came out at 100 nM.

Consider `CN1CCN(c2ccc(NC(=O)c3ccccn3)c3ncccc23)CC1` [Compound 98], for which the CC50 stood at 33 nM.

As for `Cc1cc(NS(=O)(=O)c2ccccn2)c2ncccc2c1C` [Compound 75, pyridine-2-sulfonic acid (5,6-dimethyl-quinolin-8-yl)-amide], the CC50 stood at 190 nM.

For `COc1cc(NC(=O)c2cc(Cl)ccn2)c2ncccc2c1` [Compound 52], the CC50 was 93 nM.

For the molecule `CN1CCC[C@H]1C(=O)Nc1ccc(N2CCOCC2)c2cccnc12` [Compound 68], the CC50 was 430 nM.

For the molecule `Cc1cccnc1C(=O)Nc1ccc(N2CCOCC2)c2cccnc12` [Compound 50], the CC50 worked out at 110 nM.

With `O=C(Nc1cccc2cccnc12)c1cc(N2CCC(N3CCCC3)CC2)ccn1` [Compound 103], the CC50 worked out at 33 nM.

With `O=C(Nc1cccc2cccnc12)[C@@H]1CCCN1` [Compound 57, (S)-pyrrolidine-2-carboxylic acid quinolin-8-ylamide], the CC50 came to 1300 nM.

For the molecule `CCN(C)c1ccccc1NC(=O)c1ccccn1` [Compound 106], the CC50 came out at 1500 nM.

Consider `O=C(Nc1cccc2cccnc12)c1ccccn1` [Compound 93, pyridine-2-carboxylic acid quinolin-8-ylamide hydrochloride salt], for which the CC50 is 72 nM.

With `O=C(Nc1cccc2cccnc12)c1cc(Oc2ccccc2)ccn1` [Compound 32, 4-phenoxypyridine-2-carboxylic acid quinolin-8-ylamide], the CC50 is 1100 nM.

Regarding `O=C(Nc1cccc2cccnc12)c1cc(Sc2ccccc2)ccn1` [Compound 31, 4-phenylsulfanylpyridine-2-carboxylic acid quinolin-8-ylamide], the CC50 is 170 nM.

Take `O=C(Nc1cccc2cccnc12)[C@@H]1CCCN1CC1CC1` [Compound 61]: the CC50 worked out at 1500 nM.

Regarding `COc1cc(NC(=O)c2cc(N3CCOCC3)ccn2)c2ncccc2c1` [Compound 53], the CC50 is 30 nM.

Staying with this data set, now noted: VEGF 165 10 ng/mL, 6 days, Alamar blue; read-out: VEGF LC50.
`COc1cc(NC(=O)c2cc(N3CCN(C)CC3)ccn2)c2ncccc2c1` [Compound 105]: the CC50 is 91 nM.

System in another data set: not listed separately
Briefly: in vitro. As to conditions: human, primary human dermal fibroblasts, D. Fibroblast LC50, 6 days, Alamar blue. The protocol: (§2) In parallel with the VEGF and FGF screens, a normal cell toxicity assay was run. Primary Human Dermal Fibroblasts (Clonetics) were plated at 5000 cells/well. After 24 hours various concentrations of test compounds, were added in duplicate plates and 10% Tween-20 was added to four control wells to represent total death. At the same time a T-zero plate was generated. The plates were returned to the carbon dioxide incubator and on day 6 Alamar blue was added and the plates read after 3 hours.
(§3) Using a T-zero plate allows the observation of compounds that cause the cells to become static as well as inhibit growth.
For orientation: Resazurin is reduced to fluorescent resorufin, in cell work by metabolically active cells.
Take `O=S(=O)(Nc1cc(Cl)c(Cl)c2cccnc12)c1ccccn1` [Compound 109]: the CC50 at 6 days is greater than 10000 nM.

Molecule `CN(C)CC(=O)Nc1cccc2cccnc12` [Compound 55, 2-dimethylamino-N-quinolin-8-yl-acetamide] came in with a CC50 at 6 days greater than 10000 nM.

`Cc1cc(NC(=O)c2ccccn2)c2ncccc2c1C` [Compound 95]: the CC50 at 6 days was greater than 10000 nM.

For `O=C(Nc1cc(Cl)c(Cl)c2cccnc12)c1ccccn1` [Compound 97], the CC50 at 6 days was greater than 10000 nM.

`O=C(Nc1cccc2cccnc12)c1ncccc1OCc1ccccc1` [Compound 47, 3-benzyloxypyridine-2-carboxylic acid quinolin-8-ylamide] came in with a CC50 at 6 days greater than 10000 nM.

Consider `O=C(Nc1cccc2cccnc12)c1cc(Cl)ccn1` [Compound 22, 4-chloropyridine-2-carboxylic acid quinolin-8-ylamide], for which the CC50 at 6 days was greater than 10000 nM.

Take `CN1CCN(c2ccc(NC(=O)c3ccccn3)c3ncccc23)CC1` [Compound 98]: the CC50 at 6 days was greater than 10000 nM.

With `Cc1cc(NS(=O)(=O)c2ccccn2)c2ncccc2c1C` [Compound 75, pyridine-2-sulfonic acid (5,6-dimethyl-quinolin-8-yl)-amide], the CC50 at 6 days is greater than 10000 nM.

`COc1cc(NC(=O)c2cc(Cl)ccn2)c2ncccc2c1` [Compound 52] displayed a CC50 at 6 days greater than 10000 nM.

The molecule `COc1cc(NC(=O)c2cc(N3CCN(C)CC3)ccn2)c2ncccc2c1` [Compound 105] showed a CC50 at 6 days of 9600 nM.

In turn, `CN1CCC[C@H]1C(=O)Nc1ccc(N2CCOCC2)c2cccnc12` [Compound 68] returned a CC50 at 6 days greater than 10000 nM.

As to `Cc1cccnc1C(=O)Nc1ccc(N2CCOCC2)c2cccnc12` [Compound 50], the CC50 at 6 days is greater than 10000 nM.

The molecule `O=C(Nc1cccc2cccnc12)c1cc(N2CCC(N3CCCC3)CC2)ccn1` [Compound 103] had a CC50 at 6 days of 4300 nM.

As to `O=C(Nc1cccc2cccnc12)[C@@H]1CCCN1` [Compound 57, (S)-pyrrolidine-2-carboxylic acid quinolin-8-ylamide], the CC50 at 6 days was greater than 10000 nM.

`CCN(C)c1ccccc1NC(=O)c1ccccn1` [Compound 106] displayed a CC50 at 6 days greater than 10000 nM.

In turn, `O=C(Nc1cccc2cccnc12)c1ccccn1` [Compound 93, pyridine-2-carboxylic acid quinolin-8-ylamide hydrochloride salt] displayed a CC50 at 6 days greater than 10000 nM.

Molecule `O=C(Nc1cccc2cccnc12)c1cc(Oc2ccccc2)ccn1` [Compound 32, 4-phenoxypyridine-2-carboxylic acid quinolin-8-ylamide] returned a CC50 at 6 days greater than 10000 nM.

The molecule `O=C(Nc1cccc2cccnc12)c1cc(Sc2ccccc2)ccn1` [Compound 31, 4-phenylsulfanylpyridine-2-carboxylic acid quinolin-8-ylamide] had a CC50 at 6 days greater than 10000 nM.

`O=C(Nc1cccc2cccnc12)[C@@H]1CCCN1CC1CC1` [Compound 61] displayed a CC50 at 6 days greater than 10000 nM.

For `COc1cc(NC(=O)c2cc(N3CCOCC3)ccn2)c2ncccc2c1` [Compound 53], the CC50 at 6 days is greater than 10000 nM.

The subject of another data set is Primary Human Dermal Fibroblasts. Briefly: in vitro. As to conditions: read-out: D. Fibroblast LC50; 6 days, Alamar blue. The protocol: as §2, §3
Take `O=C(Nc1ccc(N2CCOCC2)c2cccnc12)c1ccccn1` [Compound 9]: the CC50 is greater than 10000 nM.
